{"source": "ChEMBL document CHEMBL3227990", "about": "“Aminotetralins as narcotic antagonists. Synthesis and opiate-related activity of 1-phenyl-2-aminotetralin derivatives” (J Med Chem, 1979)", "key": {"[1]": {"species": "Mus musculus", "assay": "Inhibition of morphine-induced analgesia in mouse assessed as dose required for 50% antagonism of analgesia by tail flick test", "type": "functional"}, "[2]": {"species": "Mus musculus", "assay": "Toxicity in mouse assessed as convulsant activity", "type": "organism-based", "conditions": "in vivo"}, "[3]": {"species": "Mus musculus", "assay": "Analgesic activity in mouse by hot plate test", "type": "functional"}}}
{"smiles": "CN(CC1CC1)[C@@H]1CCc2ccccc2[C@@]1(O)c1ccccc1.Cl", "values": [{"measurement": "AD50", "setting": "[1]", "result": ">=30 mg kg-1"}, {"measurement": "Activity", "setting": "[2]", "result": "Toxic"}]}
{"smiles": "CO[C@@]1(c2ccccc2)c2ccccc2CC[C@H]1N(C)CC1CC1.Cl", "values": [{"measurement": "AD50", "setting": "[1]", "result": 33.5, "unit": "mg/kg"}, {"measurement": "ED50", "setting": "[3]", "result": "≥ 50", "unit": "mg/kg"}]}
{"smiles": "CCC(=O)O[C@@]1(c2ccccc2)c2ccccc2CC[C@H]1N(C)CC1CC1.Cl", "values": [{"measurement": "AD50", "setting": "[1]", "result": ">=100 mg kg-1"}, {"measurement": "ED50", "setting": "[3]", "result": 17.8, "unit": "mg/kg"}]}
{"smiles": "CN1CC[C@]23c4c5ccc(O)c4O[C@H]2[C@@H](O)C=C[C@H]3[C@H]1C5", "note": "[MORPHINE]", "values": [{"measurement": "ED50", "setting": "[3]", "result": 1.1, "unit": "mg/kg"}]}
